Measurements reported in patent US20200319197A1, “Biomarkers of Preterm Birth” (Carmentix PTE. Ltd., priority 2017, published 2020).
Like-named read-outs stand apart in the source and are kept apart here.

Legend:
[1] = tested on: EFEMP1; details: End1, 100 μM H2O2, 24 h, vs control untreated cells, ± SEM
[2] = tested on: ECM1; assay: ECM1 in medium of End1 post-H2O2 treatment, ELISA; details: vs control untreated cells, ± SEM
[3] = tested on: FGA; details: End1, 100 μM H2O2, 24 h, vs control untreated cells, ± SEM
[4] = tested on: GGH; assay: GGH in medium of End1 post-H2O2 treatment, ELISA; details: vs control untreated cells, ± SEM
[5] = tested on: LAMC2; assay: LAMC2 in medium of End1 post-H2O2 treatment, ELISA; details: vs control untreated cells, ± SEM
[6] = tested on: ECM1; details: Ect1, 200 μM H2O2, 24 h, vs control untreated cells, ± SEM
[7] = tested on: GGH; assay: GGH in medium of Ect1 post-H2O2 treatment, ELISA; details: for Fold change GGH expression: vs control untreated cells, ± SEM
[8] = tested on: Ect1 cells; assay: MTT assay, cell viability and proliferation after H2O2 treatment, Ect1; details: vs untreated control
[9] = tested on: End1 cells; details: MTT, vs untreated control; for decrease in cell viability: significant
[10] = tested on: FGA; assay: FGA in medium of Ect1 post-LPS treatment, ELISA; format: cell-based; details: for Fold change FGA expression: 24 h, vs control untreated cells, ± SEM
Experimental: (§1) At Day 1, cell culture was removed and substituted with KSFM without growth factor supplement. Cells were then treated with increasing doses of LPS (10 μg/ml, 25 μg/ml, 50 μg/ml) at Day 2.

[11] = tested on: ECM1; assay: ECM1 in medium of End1 post-LPS treatment, ELISA; format: cell-based; details: for Fold change ECM1 expression: 24 h, vs control untreated cells, ± SEM
Experimental: as §1

[12] = tested on: GGH; assay: GGH in medium of Ect1 post-LPS treatment, ELISA; format: cell-based; details: for Fold change GGH expression: 24 h, vs control untreated cells, ± SEM
Experimental: as §1

[13] = tested on: GGH; assay: GGH in medium of End1 post-LPS treatment, ELISA; format: cell-based; details: for Fold change GGH expression: 24 h, vs control untreated cells, ± SEM
Experimental: as §1

[14] = tested on: LAMC2; assay: LAMC2 in medium of End1 post-LPS treatment, ELISA; format: cell-based; details: 24 h, vs control untreated cells, ± SEM
Experimental: as §1

[15] = tested on: FGA; assay: FGA in medium of End1 post-LPS treatment, ELISA; format: cell-based; details: for Fold change FGA expression: 24 h, vs control untreated cells, ± SEM
Experimental: as §1

[16] = tested on: ECM1; assay: ECM1 in medium of Ect1 post-LPS treatment, ELISA; format: cell-based; details: 24 h, vs control untreated cells, ± SEM
Experimental: as §1

[17] = tested on: LAMC2; assay: LAMC2 in medium of Ect1 post-LPS treatment, ELISA; format: cell-based; details: Ect1, 50 μg/ml LPS, 24 h, vs control untreated cells, ± SEM
Experimental: as §1

[18] = Ect1, 3 different doses of LPS, statistically insignificant
[19] = End1, LPS treatment, dose not specified

OO [H2O2, Hydrogen peroxide]
Fold change EFEMP1 expression [1]: 0.73 ± 0.12 fold | Fold change ECM1 expression ([2]; End1, 100 μM H2O2, 24 h): 1.02 ± 0.16 fold | Fold change ECM1 expression ([2]; End1, 200 μM H2O2, 24 h): 0.90 ± 0.07 fold | Fold change FGA expression [3]: 0.96 ± 0.21 fold | Fold change GGH expression ([4]; End1, 100 μM H2O2, 24 h): 0.75 ± 0.16 fold | Fold change GGH expression ([4]; End1, 200 μM H2O2, 24 h): 0.86 ± 0.18 fold | Fold change LAMC2 expression ([5]; End1, 100 μM H2O2, 24 h): 1.15 ± 0.17 fold | Fold change LAMC2 expression ([5]; End1, 200 μM H2O2, 24 h): 0.95 ± 0.16 fold | Fold change ECM1 expression [6]: 1.09 ± 0.21 fold | Fold change GGH expression ([7]; Ect1, 200 μM H2O2, 24 h): 0.73 ± 0.16 fold | Fold change GGH expression ([7]; Ect1, 400 μM H2O2, 24 h): 1.01 ± 0.25 fold | GGH expression upon H2O2 treatment ([7]; Ect1, H2O2 24 h, dose not given): remained relatively unchanged | effect on cell viability ([8]; 50 μM H2O2, 24 h): did not affect cell viability | effect on cell viability ([8]; 100 μM H2O2, 24 h): did not affect cell viability | decrease in cell density ([8]; 200 μM H2O2, 24 h, not statistically significant): 20% | decrease in cell viability ([8]; 400 μM H2O2, 24 h, significant): ~50% | effect on cell viability ([9]; 50 μM H2O2, 24 h): no effect | decrease in cell viability ([9]; 100 μM H2O2, 24 h): ~20% | decrease in cell viability ([9]; 200 μM H2O2, 24 h): ~50% | decrease in cell viability ([9]; 400 μM H2O2, 24 h): ~90%

Lipopolysaccharide [LPS]
Fold change FGA expression ([10]; Ect1, 10 μg/ml LPS): 1.05 ± 0.15 fold | Fold change FGA expression ([10]; Ect1, 25 μg/ml LPS): 1.13 ± 0.12 fold | Fold change FGA expression ([10]; Ect1, 50 μg/ml LPS): 1.19 ± 0.22 fold | FGA expression in conditioned media [10, 18]: slight increases | Fold change ECM1 expression ([11]; End1, 10 μg/ml LPS): 0.94 ± 0.14 fold | Fold change ECM1 expression ([11]; End1, 25 μg/ml LPS): 0.87 ± 0.11 fold | Fold change ECM1 expression ([11]; End1, 50 μg/ml LPS): 0.76 ± 0.11 fold | ECM1 expression in conditioned media ([11]; End1, LPS treatment, dose not specified, statistically insignificant): small decrease | Fold change GGH expression ([12]; Ect1, 10 μg/ml LPS): 1.67 ± 0.40 fold | Fold change GGH expression ([12]; Ect1, 25 μg/ml LPS): 1.42 ± 0.23 fold | Fold change GGH expression ([12]; Ect1, 50 μg/ml LPS): 1.80 ± 0.52 fold | GGH expression in conditioned media [12, 18]: slight increases | Fold change GGH expression ([13]; End1, 10 μg/ml LPS): 0.69 ± 0.15 fold | Fold change GGH expression ([13]; End1, 25 μg/ml LPS): 0.92 ± 0.19 fold | Fold change GGH expression ([13]; End1, 50 μg/ml LPS): 0.76 ± 0.13 fold | GGH expression level in conditioned media [13, 19]: down-regulated | Fold change LAMC2 expression ([14]; End1, 10 μg/ml LPS): ~8 fold | Fold change LAMC2 expression ([14]; End1, 25 μg/ml LPS): ~8 fold | Fold change LAMC2 expression ([14]; End1, 50 μg/ml LPS): ~8 fold | Fold change FGA expression ([15]; End1, 10 μg/ml LPS): 0.90 ± 0.10 fold | Fold change FGA expression ([15]; End1, 25 μg/ml LPS): 0.92 ± 0.15 fold | Fold change FGA expression ([15]; End1, 50 μg/ml LPS): 0.78 ± 0.10 fold | FGA expression level in conditioned media [15, 19]: down-regulated | Fold change ECM1 expression ([16]; Ect1, 10 μg/ml LPS): 0.87 ± 0.18 fold | Fold change ECM1 expression ([16]; Ect1, 50 μg/ml LPS): 0.81 ± 0.17 fold | Fold change LAMC2 expression [17]: 5.99 ± 1.86 fold
